Measured values reported in patent US10065943B2, “Pyrrolidine derivatives as angiotensin II type 2 antagonists” (NOVARTIS AG, priority 2015, dated 2018).

Assays:
human AT2 receptor = biological target: T1, human AT2 receptor (Homo sapiens, UniProt P50052); test: AT2 receptor binding ([125I]CGP 42112A displacement, CHO-K1 membranes); conditions: [125I]CGP 42112A 0.05 nM, membranes of CHO-K1 cells expressing human AT2 receptor; Ki from IC50 by Cheng-Prussoff equation; read-out: Ki
T1 construct: membranes prepared in house
T1 sequence (P50052 1-363): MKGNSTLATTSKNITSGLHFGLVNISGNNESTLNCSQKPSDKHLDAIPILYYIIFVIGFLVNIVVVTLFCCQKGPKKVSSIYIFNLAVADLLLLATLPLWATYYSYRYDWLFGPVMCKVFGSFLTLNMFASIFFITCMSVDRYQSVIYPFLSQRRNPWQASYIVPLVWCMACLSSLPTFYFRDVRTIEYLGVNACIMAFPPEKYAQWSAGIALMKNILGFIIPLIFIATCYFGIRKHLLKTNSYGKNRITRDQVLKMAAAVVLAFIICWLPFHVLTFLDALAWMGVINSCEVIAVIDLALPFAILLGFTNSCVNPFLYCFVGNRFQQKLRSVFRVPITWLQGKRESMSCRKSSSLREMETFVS
Excerpt: Reagents were purchased from Sigma-Aldrich, unless otherwise specified. Dialyzed fetal bovine serum (FBS) was from Life Technologies (cat. no. 10073772). Valiscreen® human angiotensin AT2 receptor cell line (cat. no. ES-070-C), [^125I]CGP 42112A (cat. no. NEX324025UC) and MicroScint™ 40 (cat. no. 6013641) were purchased from PerkinElmer. CGP 42112A (cat. no. 2569) and PD 123,319 ditrifluoroacetate (cat. no. 1361) were from Tocris Biosciences.
• 1. Growth medium • EX-CELL® CHO DHFR^− medium • 10% FBS, dialysed • 1 mM sodium pyruvate • 2 mM L-glutamine • 2. Harvesting buffer • PBS • 2 mM EDTA • 3. Suspension buffer • 50 mM Tris-HCl, pH 7.4 • 10 mM EDTA • 4. Resuspension buffer • 50 mM Tris-HCl, pH 7.4 • 0.1 mM EDTA • 0.1% sucrose • 5. Binding assay buffer • 50 mM Tris-HCl, pH 7.4 • 5 mM MgCl2 • 1 mM EDTA • 0.1% gelatin • 6. Wash buffer • 50 mM Tris-HCl, pH 7.4 Procedure for Membrane Preparation • Valiscreen® CHO-K1 cells stably expressing the human AT2 receptor were cultured in growth medium. • Cells were seeded into T-175 flasks and grown to 70-80% confluence. • Medium was removed from confluent flasks and cells were washed with warm PBS. • Cells were harvested by incubating with harvesting buffer for 10 min at 37° C., and then transferred to a centrifuge tube on ice. • Cells were centrifuged at 200 g for 5 min at 4° C. • Cell pellets were homogenised in ice-cold suspension buffer. • Homogenates were centrifuged at 40,000 g for 15 min at 4° C. • Pellets were resuspended in ice-cold resuspension buffer and centrifuged at 40,000 g for 15 min at 4° C. • Final pellets were homogenised in ice-cold resuspension buffer. • Protein concentrations were determined by BCA assay method with BSA as standard. Compound Preparation
Compounds were prepared from 10 mM stock solutions in 100% DMSO. Dilutions were made using electronic multichannel pipettes.
• Compounds dilutions were prepared in 100% DMSO at 100× final assay concentration. • Compounds were diluted in 100% DMSO to the appropriate maximal concentration. • 30 μL compound was added to row A. • 21.6 μL of 100% DMSO was added to rows B-H. • Transfer 10 μL from row A into row B (half log dilution). • Transfer 10 μL from row B into row C (half log dilution). • Transfer 10 μL from row C into row D (half log dilution). • Transfer 10 μL from row D into row E (half log dilution). • Transfer 10 μL from row E into row F (half log dilution). • Transfer 10 μL from row F into row G (half log dilution). • Transfer 10 μL from row G into row H (half log dilution). Working Plate Preparation (96-Well Plate) • Compounds were diluted 10-fold in assay buffer. • 10 μL compound solution from dose plate was transferred to corresponding well of working plate. • 90 μL assay buffer was added to the wells of working plate. • Working solutions contained 10% DMSO in assay buffer (1% DMSO final assay concentration). Controls • Total binding (high control) was determined in the absence of unlabelled ligand. A solution of 10% DMSO in assay buffer was prepared. • Non-specific binding (low control) was determined in the presence of a vast excess (10 μM) of PD 123,319. 1 mM stock solution of PD 123,319 in water was diluted 10-fold with 10% DMSO in assay buffer. Assay Plate Preparation (96-Well Plate)
15 μL compound solution was transferred to duplicate wells of assay plate. 5 compounds were tested per plate. 15 μL control solutions were transferred to columns 1 and 12 of assay plate.

[1] = Human hepatocyte stability assay; format: in vitro ADME; conditions: cryopreserved hepatocytes, 1 μM test compound, 0.5 million cells/mL, pH 7.4, 37° C., 60 min; for half-life at 1 μM: read-out: T½
Protocol: A human hepatocyte (cryopreserved) incubation mixture containing, 0.5 million cells/mL and phosphate buffered saline (pH 7.4) was pre-incubated at 37° C. and the reaction then initiated by the addition of 1 μM test compound. The incubations were performed in duplicate. The final organic concentration was 1% (consisting of 90% acetonitrile and 10% DMSO). Positive control markers for Phase I and II metabolism were included. Samples were removed at 6 time-points over 60 min and each reaction terminated by the addition of methanol containing internal standard. After vortexing and centrifugation, the resultant supernatant was analysed by UPLC-MS.
Intrinsic clearance is calculated from the resulting concentration-time profile.
Where C(t) is the compound concentration at time t, C(0) is the starting concentration and k is the elimination rate constant.
The ln(concentration) vs time profile can be mathematically described by: ln C(t)=ln C(0)−kt
Where k represents the slope of the regression line.
Solving for k results in:
Once k is known, half-life (t½) can be calculated using: […]
Furthermore, CLint can be calculated by introducing the cell density ([cell]) in 10^6/ml: […]

C[C@@]1(C(=O)O)C[C@H](N2CCCOc3cc(F)c(F)cc32)CN1C(=O)C(c1ccccc1)c1ccccc1 [Compound 32, (2S,4S)-4-(7,8-Difluoro-3,4-dihydrobenzo[b][1,4]oxazepin-5(2H)-yl)-1-(2,2-diphenylacetyl)-2-methylpyrrolidine-2-carboxylic acid]
Ki (human AT2 receptor): 3.7 nM
hepatocyte CLint at 1 μM [1]: < 3 µL/min/1e6 cells
half-life at 1 μM [1]: > 7.67 h

O=C(NS(=O)(=O)C1CC1)[C@@H]1C[C@H](N2CCCOc3cc(F)c(F)cc32)CN1C(=O)C(c1ccccc1)c1ccccc1 [Compound 36, (2S,4S)—N-(Cyclopropylsulfonyl)-4-(7,8-difluoro-3,4-dihydrobenzo[b][1,4]oxazepin-5(2H)-yl)-1-(2,2-diphenylacetyl)pyrrolidine-2-carboxamide]
Ki (human AT2 receptor): 2.6 nM
hepatocyte CLint at 1 μM [1]: < 3 µL/min/1e6 cells
half-life at 1 μM [1]: > 7.67 h

O=C(O)[C@@H]1C[C@H](N2CCCc3ccccc32)CN1C(=O)C(c1ccccc1)c1ccccc1 [Compound 14, (2S,4S)-4-(3,4-Dihydroquinolin-1(2H)-yl)-1-(2,2-diphenylacetyl)pyrrolidine-2-carboxylic acid]
Ki (human AT2 receptor): 23.8 nM

C[C@@]1(C(=O)NS(=O)(=O)C2CC2)C[C@@H](N2CCCOc3cc(F)c(F)cc32)CN1C(=O)C(c1ccccc1)c1ccccc1 [Compound 42a, (2S,4R)—N-(cyclopropylsulfonyl)-4-(7,8-difluoro-3,4-dihydrobenzo[b][1,4]oxazepin-5(2H)-yl)-1-(2,2-diphenylacetyl)-2-methylpyrrolidine-2-carboxamide]
Ki (human AT2 receptor): 5 nM

O=C(O)[C@@H]1C[C@H](N2CCCS(=O)(=O)c3ccccc32)CN1C(=O)C(c1ccccc1)c1ccccc1 [Compound 34, (2S,4S)-4-(1,1-Dioxido-3,4-dihydrobenzo[b][1,4]thiazepin-5(2H)-yl)-1-(2,2-diphenylacetyl)pyrrolidine-2-carboxylic acid]
Ki (human AT2 receptor): 10 nM

NC(=O)[C@@H]1C[C@H](N2CCCCc3ccccc32)CN1C(=O)C(c1ccccc1)c1ccccc1 [Compound 15, (2S,4S)-1-(2,2-Diphenylacetyl)-4-(2,3,4,5-tetrahydro-1H-benzo[b]azepin-1-yl)pyrrolidine-2-carboxamide]
Ki (human AT2 receptor): 66.8 nM

O=C(O)[C@@H]1C[C@H](N2CCCCc3cc(F)c(F)cc32)CN1C(=O)C(c1ccccc1)c1ccccc1 [Compound 27, (2S,4S)-4-(7,8-Difluoro-2,3,4,5-tetrahydro-1H-benzo[b]azepin-1-yl)-1-(2,2-diphenylacetyl)pyrrolidine-2-carboxylic acid]
Ki (human AT2 receptor): 2.8 nM

Cc1ccc2c(c1)N([C@@H]1C[C@@H](C(=O)O)N(C(=O)C(c3ccccc3)c3ccccc3)C1)CCCC2 [Compound 23, (2S,4R)-1-(2,2-Diphenylacetyl)-4-(8-methyl-2,3,4,5-tetrahydro-1H-benzo[b]azepin-1-yl)pyrrolidine-2-carboxylic acid]
Ki (human AT2 receptor): 15.9 nM

C[C@@]1(C(=O)O)C[C@H](N2CCCCc3ccccc32)CN1C(=O)C(c1ccccc1)c1ccccc1 [Compound 30, (2S,4S)-1-(2,2-Diphenylacetyl)-2-methyl-4-(2,3,4,5-tetrahydro-1H-benzo[b]azepin-1-yl)pyrrolidine-2-carboxylic acid]
Ki (human AT2 receptor): 3.3 nM

C[C@@]1(C(=O)O)C[C@H](N2CCCOc3cc(F)ccc32)CN1C(=O)C(c1ccccc1)c1ccccc1 [Compound 33, (2S,4S)-1-(2,2-Diphenylacetyl)-4-(8-fluoro-3,4-dihydrobenzo[b][1,4]oxazepin-5(2H)-yl)-2-methylpyrrolidine-2-carboxylic acid]
Ki (human AT2 receptor): 7 nM

COc1ccc2c(c1)CCCCN2[C@H]1C[C@@H](C(=O)O)N(C(=O)C(c2ccccc2)c2ccccc2)C1 [Compound 4, (2S,4S)-1-(2,2-Diphenylacetyl)-4-(7-methoxy-2,3,4,5-tetrahydro-1H-benzo[b]azepin-1-yl)pyrrolidine-2-carboxylic acid]
Ki (human AT2 receptor): 8.8 nM

O=C(O)[C@@H]1C[C@H](N2CCCCc3ccccc32)CN1C(=O)C(c1ccccc1)c1ccccc1 [Compound 1, (2S,4S)-1-(2,2-Diphenylacetyl)-4-(2,3,4,5-tetrahydro-1H-benzo[b]azepin-1-yl)pyrrolidine-2-carboxylic acid]
Ki (human AT2 receptor): 2.7 nM

O=C(O)[C@@H]1C[C@H](N2CCOCc3ccccc32)CN1C(=O)C(c1ccccc1)c1ccccc1 [Compound 10, (2S,4S)-4-(2,3-Dihydrobenzo[e][1,4]oxazepin-1(5H)-yl)-1-(2,2-diphenylacetyl)pyrrolidine-2-carboxylic acid]
Ki (human AT2 receptor): 148 nM
